Experimental data as given in patent publication US7550506B2, “Amino acid derived prodrugs of propofol, compositions and uses thereof” (XenoPort, Inc., priority 2004, dated 2009).

How the values were obtained:
[1] = substrate 2.0 μM, 37° C.; for % of Propofol Released from Propofol Prodrugs after 60 min, Human Plasma: no cofactors; for % of Propofol Released from Propofol Prodrugs after 60 min, Human Liver S9 (0.5 mg/mL): NADPH
Protocol: (§1) The stability of propofol prodrugs were evaluated in one or more in vitro systems using a variety of tissue preparations following methods known in the art. Tissues were obtained from commercial sources (e.g., Pel-Freez Biologicals, Rogers, Ark., or GenTest Corporation, Woburn, Mass.). Experimental conditions used for the in vitro studies are described in Table 1 below. Each preparation was incubated with test compound at 37° C. for one hour. Aliquots (50 μL) were removed at 0, 30, and 60 min and quenched with 0.1% trifluoroacetic acid in acetonitrile. Samples were then centrifuged and analyzed by LC/MS/MS (see Example 134 below for method details). Stability of drug conjugates towards specific enzymes (e.g., peptidases, etc.) were also assessed in vitro by incubation with the purified enzyme.

[2] = Caco-2 homogenate S9 stability; format: in vitro ADME; conditions: Caco-2 homogenate S9 0.5 mg protein per mL, substrate 5.0 μM, 37° C.
Protocol: Caco-2 Homogenate S9 Stability: Caco-2 cells were grown for 21 days prior to harvesting. Culture medium was removed and cell monolayers were rinsed and scraped off into ice-cold 10 mM sodium phosphate/0.15 M potassium chloride, pH 7.4. Cells were lysed by sonication at 4° C. using a probe sonicator. Lysed cells were then transferred into 1.5 mL centrifuge vials and centrifuged at 9000 g for 20 min at 4° C. The resulting supernatant (Caco-2 cell homogenate S9 fraction) was aliquoted into 0.5 mL vials and stored at −80° C. until used.
For stability studies, prodrug (5 μM) was incubated in Caco-2 homogenate S9 fraction (0.5 mg protein per mL) for 60 min at 37° C. Concentrations of intact prodrug and released propofol were determined at zero time and 60 minutes using LC/MS/MS.

pancreatin = conditions: 1% (w/v) pancreatin, substrate 5.0 μM, pH 7.5, 37° C.
Protocol: as §1
Pancreatin Stability: Stability studies were conducted by incubating conjugate (5 μM) with 1% (w/v) pancreatin (Sigma, P-1625, from porcine pancreas) in 0.025 M Tris buffer containing 0.5 M NaCl (pH 7.5) at 37° C. for 60 min. The reaction was stopped by addition of 2 volumes of methanol. After centrifugation at 14,000 rpm for 10 min, the supernatant was removed and analyzed by LC/MS/MS.

[3] = oral dosing in rats (Raoof et al. 1996); cited from earlier work

## CC(C)c1cccc(C(C)C)c1OC(=O)OC(C)C(NC(=O)C(N)Cc1cnc[nH]1)C(=O)O.Cl.Cl (stereo not shown) [(25), H-His-Thr(γ-OC(O)OPropofol)-OH Bis-Hydrochloride]
[1]
  % of Propofol Released from Propofol Prodrugs after 60 min, Human Plasma: 0%
  % of Propofol Released from Propofol Prodrugs after 60 min, Human Liver S9 (0.5 mg/mL): 8%
[2]
  % of Propofol Released from Propofol Prodrugs after 60 min, Caco-2 S9: 52%
pancreatin
  % of Propofol Released from Propofol Prodrugs after 60 min, Pancreatin: 0%

## CSCCC(N)C(=O)NC(C(=O)O)C(C)OC(=O)Oc1c(C(C)C)cccc1C(C)C.Cl (stereo not shown) [(27), H-Met-Thr(γ-OC(O)OPropofol)-OH Hydrochloride]
[1]
  % of Propofol Released from Propofol Prodrugs after 60 min, Human Plasma: 0%
  % of Propofol Released from Propofol Prodrugs after 60 min, Human Liver S9 (0.5 mg/mL): 0%
[2]
  % of Propofol Released from Propofol Prodrugs after 60 min, Caco-2 S9: 20%
pancreatin
  % of Propofol Released from Propofol Prodrugs after 60 min, Pancreatin: 0%

## CC(C)c1cccc(C(C)C)c1OC(=O)OC(C)C(NC(=O)C(N)CCCN)C(=O)O.Cl.Cl (stereo not shown) [(28), H-Orn-Thr(γ-OC(O)OPropofol)-OH Bis-Hydrochloride]
[1]
  % of Propofol Released from Propofol Prodrugs after 60 min, Human Plasma: 2%
  % of Propofol Released from Propofol Prodrugs after 60 min, Human Liver S9 (0.5 mg/mL): 11%
[2]
  % of Propofol Released from Propofol Prodrugs after 60 min, Caco-2 S9: 54%
pancreatin
  % of Propofol Released from Propofol Prodrugs after 60 min, Pancreatin: 0%

## CC(C)c1cccc(C(C)C)c1OC(=O)OC(C)C(NC(=O)CN)C(=O)O (stereo not shown) [(10), H-Gly-Thr(γ-OC(O)OPropofol)-OH]
[1]
  % of Propofol Released from Propofol Prodrugs after 60 min, Human Plasma: 2%
  % of Propofol Released from Propofol Prodrugs after 60 min, Human Liver S9 (0.5 mg/mL): 2%
[2]
  % of Propofol Released from Propofol Prodrugs after 60 min, Caco-2 S9: 30%
pancreatin
  % of Propofol Released from Propofol Prodrugs after 60 min, Pancreatin: 43%

## H-Ala-Thr(γ-OC(O)OPropofol)-OH Hydrochloride [(16)]
[2]
  % of Propofol Released from Propofol Prodrugs after 60 min, Caco-2 S9: 33%

## CC(C)c1cccc(C(C)C)c1OC(=O)OC(C)C(NC(=O)C(N)CN)C(=O)O.Cl.Cl (stereo not shown) [(24), H-Dap-Thr(γ-OC(O)OPropofol)-OH Bis-Hydrochloride]
[1]
  % of Propofol Released from Propofol Prodrugs after 60 min, Human Plasma: 0%
  % of Propofol Released from Propofol Prodrugs after 60 min, Human Liver S9 (0.5 mg/mL): 1%
[2]
  % of Propofol Released from Propofol Prodrugs after 60 min, Caco-2 S9: 21%
pancreatin
  % of Propofol Released from Propofol Prodrugs after 60 min, Pancreatin: 0%

## CC(C)c1cccc(C(C)C)c1OC(=O)OC(C)C(NC(=O)C(N)CCCN=C(N)N)C(=O)O.Cl.Cl.Cl (stereo not shown) [(23), H-Arp-Thr(γ-OC(O)OPropofol)-OH Tris-Hydrochloride]
[1]
  % of Propofol Released from Propofol Prodrugs after 60 min, Human Plasma: 25%
  % of Propofol Released from Propofol Prodrugs after 60 min, Human Liver S9 (0.5 mg/mL): 93%
[2]
  % of Propofol Released from Propofol Prodrugs after 60 min, Caco-2 S9: 100%
pancreatin
  % of Propofol Released from Propofol Prodrugs after 60 min, Pancreatin: 4%

## CC(C)CC(N)C(=O)NC(C(=O)O)C(C)OC(=O)Oc1c(C(C)C)cccc1C(C)C.Cl (stereo not shown) [(26), H-Leu-Thr(γ-OC(O)OPropofol)-OH Hydrochloride]
[1]
  % of Propofol Released from Propofol Prodrugs after 60 min, Human Plasma: 0%
  % of Propofol Released from Propofol Prodrugs after 60 min, Human Liver S9 (0.5 mg/mL): 37%
[2]
  % of Propofol Released from Propofol Prodrugs after 60 min, Caco-2 S9: 93%
pancreatin
  % of Propofol Released from Propofol Prodrugs after 60 min, Pancreatin: 30%

## CC(C)c1cccc(C(C)C)c1OC(=O)OC(C)C(NC(=O)C(N)CCCCN)C(=O)O.Cl.Cl (stereo not shown) [(18), H-Lys-Thr(γ-OC(O)OPropofol)-OH Bis-Hydrochloride]
[1]
  % of Propofol Released from Propofol Prodrugs after 60 min, Human Plasma: 12%
  % of Propofol Released from Propofol Prodrugs after 60 min, Human Liver S9 (0.5 mg/mL): 32%
[2]
  % of Propofol Released from Propofol Prodrugs after 60 min, Caco-2 S9: 33%
pancreatin
  % of Propofol Released from Propofol Prodrugs after 60 min, Pancreatin: 1%

## CC(C)c1cccc(C(C)C)c1O [propofol, 2,6-diisopropylphenol]
[3]
  Share of the administered drug that undergoes first pass metabolism: approximately 90%
